In patent US8796259B2, “N3-heteroaryl substituted triazoles and N5-heteroaryl substituted triazoles useful as axl inhibitors” (Rigel Pharmaceuticals, Inc., priority 2006, dated 2014):

molecular target: T1, Axl (Homo sapiens, UniProt P30530); test: Phospho-Akt in-cell Western assay (inhibition of Axl activity, Axl-antibody cross-linking stimulation); format: cell-based; conditions: Hela cells, phospho-Akt readout; compounds of formula (Ia), Table 1
T1 construct: endogenous in cells; host or cells: HeLa cells
T1 sequence (P30530 26-894): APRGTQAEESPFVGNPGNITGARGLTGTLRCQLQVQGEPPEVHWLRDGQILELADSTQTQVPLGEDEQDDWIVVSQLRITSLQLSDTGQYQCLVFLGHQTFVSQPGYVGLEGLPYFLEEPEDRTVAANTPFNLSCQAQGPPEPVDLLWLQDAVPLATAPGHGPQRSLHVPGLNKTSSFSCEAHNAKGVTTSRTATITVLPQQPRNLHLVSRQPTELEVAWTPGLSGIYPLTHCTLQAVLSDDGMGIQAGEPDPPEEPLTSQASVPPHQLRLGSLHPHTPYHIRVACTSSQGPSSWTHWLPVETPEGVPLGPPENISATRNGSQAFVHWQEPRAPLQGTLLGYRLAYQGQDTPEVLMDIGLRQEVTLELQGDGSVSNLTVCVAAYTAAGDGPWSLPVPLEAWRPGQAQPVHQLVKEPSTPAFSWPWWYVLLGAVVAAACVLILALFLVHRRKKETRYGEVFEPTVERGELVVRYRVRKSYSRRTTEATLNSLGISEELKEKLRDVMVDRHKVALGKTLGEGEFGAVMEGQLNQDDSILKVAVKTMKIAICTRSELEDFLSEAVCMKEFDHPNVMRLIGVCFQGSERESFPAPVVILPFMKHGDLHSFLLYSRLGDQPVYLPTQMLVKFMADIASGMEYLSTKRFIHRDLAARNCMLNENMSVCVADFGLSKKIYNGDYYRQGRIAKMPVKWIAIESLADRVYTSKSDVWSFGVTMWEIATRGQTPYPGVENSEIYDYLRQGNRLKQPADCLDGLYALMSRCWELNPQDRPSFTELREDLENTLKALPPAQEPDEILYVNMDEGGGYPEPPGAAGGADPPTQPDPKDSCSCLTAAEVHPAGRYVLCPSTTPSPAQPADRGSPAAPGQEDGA
Summary of the method: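 HeLa cells on poly-L-lysine were starved 24 h in 0.5% FCS/DMEM with 500 ng/mL Axl/Fc, pre-treated with compound 1 h at 37 °C, then stimulated 5 min by cross-linked mouse anti-Axl/biotin anti-mouse antibody clusters. After formaldehyde fixation, phospho-Akt was detected by rabbit anti-phospho-Akt and HRP secondary with chemiluminescence read-out.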

IC50 [nM]	SMILES
1000 to 10000	COc1cc2ncnc(-n3nc(Nc4cnc(N5CCC(CN6CCCCC6)CC5)nc4)nc3N)c2cc1OC [compound 63, 1-(6,7-dimethoxy-quinazoline-4-yl)-N^3-(2-(4-piperidin-1-ylmethyl-piperidin-1-yl)pyrimidin-5-yl)-1H-1,2,4-triazole-3,5-diamine]
< 1000	Cc1csc2c(-n3nc(Nc4cnc5c(c4)C4CC(N6CCCC6)CC4C5)nc3N)nc(Cl)nc12 (stereo not shown) [compound 64, 1-(2-chloro-7-methylthieno [3,2-d]pyrimidin-4-yl)-N^3-(6-(pyrrolidin-1-yl)-4b,5,6,7,7a,8-hexahydro-pentaleno[2,1-b]pyridin-3-yl)-1H-1,2,4-triazole-3,5-diamine]
< 1000	COc1cc2ncnc(-n3nc(Nc4ccc(C=CCN5CCC(N6CCN(C)CC6)CC5)nc4)nc3N)c2cc1OC [compound 65, 1-(6,7-dimethoxy-quinazoline-4-yl)-N^3-(6-(3-(4-(4-methyl-piperazin-1-yl)piperidin-1-yl)propenyl)pyridin-3-yl)-1H-1,2,4-triazole-3,5-diamine]
< 1000	Cc1csc2c(-n3nc(Nc4cnc5c(c4)CC(N4CCN(C)CC4)CC5)nc3N)nc(Cl)nc12 (stereo not shown) [compound 66, 1-(2-chloro-7-methylthieno [3,2-d]pyrimidin-4-yl)-N^3-(6-(4-methyl-piperazin-1-yl)-5,6,7,8-tetrahydro-quinolin-3-yl)-1H-1,2,4-triazole-3,5-diamine]
< 1000	COc1cc2ncnc(-n3nc(Nc4ccc(C=CCN5CCC(N6CCCCC6)CC5)nc4)nc3N)c2cc1OC [compound 67, 1-(6,7-dimethoxy-quinazoline-4-yl)-N^3-(6-(3-(4-piperidin-1-ylpiperidin-1-yl)propenyl)pyridin-3-yl)-1H-1,2,4-triazole-3,5-diamine]
< 1000	Cc1csc2c(-n3nc(Nc4ccc(N5CCN(C6CC6)CC5)nc4)nc3N)nc(Cl)nc12 [compound 68, 1-(2-chloro-7-methylthieno [3,2-d]pyrimidin-4-yl)-N^3-(6-(4-cyclopropyl-piperazin-1-yl)pyridin-3-yl)-1H-1,2,4-triazole-3,5-diamine]
< 1000	COc1cc2ncnc(-n3nc(Nc4ccc(C=CCN5CCC(N(C)C)CC5)nc4)nc3N)c2cc1OC [compound 69, 1-(6,7-dimethoxy-quinazoline-4-yl)-N^3-(6-(3-(4-dimethyl-amino-piperidin-1-yl)propenyl)pyridin-3-yl)-1H-1,2,4-triazole-3,5-diamine]
< 1000	Cc1csc2c(-n3nc(Nc4cnc5c(c4)CC(NC4CCCC4)CC5)nc3N)nc(Cl)nc12 (stereo not shown) [compound 70, 1-(2-chloro-7-methylthieno [3,2-d]pyrimidin-4-yl)-N^3-(6-cyclopentyl-amino-5,6,7,8-tetrahydro-quinolin-3-yl)-1H-1,2,4-triazole-3,5-diamine]
< 1000	Cc1cc(Nc2nc(N)n(-c3nc(Cl)nc4c(C)csc34)n2)cnc1N1CCN(C2CC3CCC2C3)CC1 (stereo not shown) [compound 71, 1-(2-chloro-7-methylthienò [3,2-d]pyrimidine-4-yl)-N^3-(5-methyl-6-(4-bicyclo[2.2.1]heptan-2-ylpiperazin-1-yl)pyridine-3-yl)-1H-1,2,4-triazole-3,5-diamine]
< 1000	Cc1cc(Nc2nc(N)n(-c3ncnc4c(C)csc34)n2)cnc1N1CCN(C2CC3CCC2C3)CC1 (stereo not shown) [compound 72, 1-(7-methylthieno [3,2-d]pyrimidine-4-yl)-N^3-(5-methyl-6-(4-bicyclo [2.2.1]heptan-2-ylpiperazin-1-yl)pyridine-3-yl)-1H-1,2,4-triazole-3,5-diamine]
< 1000	Cc1csc2c(-n3nc(Nc4ccc(N5CCN([C@H]6C[C@@H]7CC[C@H]6C7)CC5)nc4)nc3N)ncnc12 [compound 73, 1-(7-methylthieno [3,2-d]pyrimidine-4-yl)-N^3-(6-(4-((1S,2S,4R)-bicyclo[2.2.1]heptan-2-yl)piperazin-1-yl)pyridin-3-yl)-1H-1,2,4-triazole-3,5-diamine]
< 1000	Cc1csc2c(-n3nc(Nc4cnc5c(c4)CCC(N4CCCC4)CC5)nc3N)nc(Cl)nc12 (stereo not shown) [compound 77, 1-(2-chloro-7-methylthieno [3,2-d]pyrimidine-4-yl)-N^3-(7-(pyrrolidin-1-yl)-6,7,8,9-tetrahydro-5H-cyclohepta[b]pyridin-3-yl)-1H-1,2,4-triazole-3,5-diamine]
< 1000	CCN(CC)C1CCN(CC=Cc2ccc(Nc3nc(N)n(-c4ncnc5cc(OC)c(OC)cc45)n3)cn2)C1 (stereo not shown) [compound 78, 1-(6,7-dimethoxy-quinazoline-4-yl)-N^3-(6-(3-(3-(diethylamino)pyrrolidin-1-yl)propenyl)pyridin-3-yl)-1H-1,2,4-triazole-3,5-diamine]
< 1000	COc1cc2ncnc(-n3nc(Nc4ccc(C=CCN5CCC(N(C)C)C5)nc4)nc3N)c2cc1OC (stereo not shown) [compound 79, 1-(6,7-dimethoxy-quinazoline-4-yl)-N^3-(6-(3-(3-(dimethyl-amino)pyrrolidin-1-yl)propenyl)pyridin-3-yl)-1H-1,2,4-triazole-3,5-diamine]
< 1000	COc1cc2ncnc(-n3nc(Nc4ccc(C=CCN5CCCCC5)nc4)nc3N)c2cc1OC [compound 80]
< 1000	COc1cc2ncnc(-n3nc(Nc4ccc(C=CCN5CCC(N6CCCC6)CC5)nc4)nc3N)c2cc1OC [compound 81, 1-(6,7-dimethoxy-quinazoline-4-yl)-N^3-(6-(3-(4-pyrrolidin-1-ylpiperidin-1-yl)propenyl)pyridin-3-yl)-1H-1,2,4-triazole-3,5-diamine]
< 1000	Cc1csc2c(-n3nc(Nc4cnc5c(c4)CC(N4CCCC4)CC5)nc3N)nc(Cl)nc12 (stereo not shown) [compound 82, 1-(2-chloro-7-methylthieno [3,2-d]pyrimidin-4-yl)-N^3-(6-pyrrolidin-1-yl-5,6,7,8-tetrahydro-quinolin-3-yl)-1H-1,2,4-triazole-3,5-diamine]
< 1000	Cc1csc2c(-n3nc(Nc4ccc(C5CCN(C6CC7CCC6C7)CC5)nc4)nc3N)nc(Cl)nc12 (stereo not shown) [compound 83, 1-(2-chloro-7-methylthieno [3,2-d]pyrimidine-4-yl)-N^3-(6-(1-bicyclo[2.2.1]heptan-2-ylpiperidin-4-yl)pyridine-3-yl)-1H-1,2,4-triazole-3,5-diamine]
< 1000	Cc1csc2c(-n3nc(Nc4cnc5c(c4)CC(NC4CCN(C)CC4)CC5)nc3N)ncnc12 (stereo not shown) [compound 84, 1-(7-methylthieno [3,2-d]pyrimidin-4-yl)-N^3-(6-(1-methyl-piperidin-4-ylamino)-5,6,7,8-tetrahydro-quinolin-3-yl)-1H-1,2,4-triazole-3,5-diamine]
< 1000	Cc1csc2c(-n3nc(Nc4cnc5c(c4)CC(N4CCCC4)CC5)nc3N)ncnc12 (stereo not shown) [compound 85, 1-(7-methylthieno [3,2-d]pyrimidin-4-yl)-N^3-(6-pyrrolidin-1-yl-5,6,7,8-tetrahydro-quinolin-3-yl)-1H-1,2,4-triazole-3,5-diamine]
< 1000	Cc1csc2c(-n3nc(Nc4cnc5c(c4)CN(C4CCN(C)CC4)CC5)nc3N)nc(Cl)nc12 [compound 86, 1-(2-chloro-7-methylthieno [3,2-d]pyrimidine-4-yl)-N^3-(6-(1-methyl-piperidin-4-yl)-5,6,7,8-tetrahydro-1,6-naphthyridin-3-yl)-1H-1,2,4-triazole-3,5-diamine]
> 20000	Cc1csc2c(-n3nc(Nc4cnc5c(c4)CN(C(=O)C4CCNCC4)CC5)nc3N)nc(Cl)nc12 [compound 87, 1-(2-chloro-7-methylthieno [3,2-d]pyrimidin-4-yl)-N^3-(6-(piperidin-4-ylcarbonyl)-5,6,7,8-tetrahydro-1,6-naphthyridin-3-yl)-1H-1,2,4-triazole-3,5-diamine]
< 1000	Cc1csc2c(-n3nc(Nc4ccc(C5CCN(C6CC7CCC6C7)CC5)nc4)nc3N)ncnc12 (stereo not shown) [compound 88, 1-(7-methylthieno [3,2-d]pyrimidine-4-yl)-N^3-(6-(1-bicyclo [2.2.1]heptan-2-ylpiperidin-4-yl)pyridine-3-yl)-1H-1,2,4-triazole-3,5-diamine]
< 1000	Cc1csc2c(-n3nc(Nc4ccc(N5CCN(CC6CC6)CC5)nc4)nc3N)ncnc12 [compound 89, 1-(7-methylthieno [3,2-d]pyrimidine-4-yl)-N^3-(6-(4-(cyclopropyl-methyl)piperazin-1-yl)pyridine-3-yl)-1H-1,2,4-triazole-3,5-diamine]
< 1000	COc1cc2ncnc(-n3nc(Nc4ccc(C=CCN5CCN(C6CCCC6)CC5)nc4)nc3N)c2cc1OC [compound 90, 1-(6,7-dimethoxy-quinazoline-4-yl)-N^3-(6-(3-(4-cyclopentyl-piperazin-1-yl)propenyl)pyridin-3-yl)-1H-1,2,4-triazole-3,5-diamine]
